Assay results published in PMC4821105 (Pharmacognosy Research, 2016).

How the values were obtained:
PTP1B [1] = target: T1, PTP1B (Homo sapiens, UniProt P18031); assay: Protein tyrosine phosphatase 1B inhibitory activity; assay type: biochemical
T1 sequence (P18031 1-435): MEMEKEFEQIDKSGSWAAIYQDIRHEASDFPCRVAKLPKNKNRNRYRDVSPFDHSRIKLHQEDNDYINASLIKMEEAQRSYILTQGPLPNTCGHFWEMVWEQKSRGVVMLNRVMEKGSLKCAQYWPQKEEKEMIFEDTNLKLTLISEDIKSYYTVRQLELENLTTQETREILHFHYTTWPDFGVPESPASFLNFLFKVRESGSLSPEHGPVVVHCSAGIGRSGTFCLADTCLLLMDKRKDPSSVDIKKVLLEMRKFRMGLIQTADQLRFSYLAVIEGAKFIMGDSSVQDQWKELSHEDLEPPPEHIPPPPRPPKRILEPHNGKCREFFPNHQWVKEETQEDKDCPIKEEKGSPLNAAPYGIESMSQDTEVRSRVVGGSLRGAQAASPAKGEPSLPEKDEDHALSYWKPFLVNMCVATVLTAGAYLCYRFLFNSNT

TCPTP = target: T2, TCPTP (Homo sapiens, UniProt P17706); assay: T-cell protein tyrosine phosphatase inhibitory activity; assay type: biochemical
T2 sequence (P17706 1-415): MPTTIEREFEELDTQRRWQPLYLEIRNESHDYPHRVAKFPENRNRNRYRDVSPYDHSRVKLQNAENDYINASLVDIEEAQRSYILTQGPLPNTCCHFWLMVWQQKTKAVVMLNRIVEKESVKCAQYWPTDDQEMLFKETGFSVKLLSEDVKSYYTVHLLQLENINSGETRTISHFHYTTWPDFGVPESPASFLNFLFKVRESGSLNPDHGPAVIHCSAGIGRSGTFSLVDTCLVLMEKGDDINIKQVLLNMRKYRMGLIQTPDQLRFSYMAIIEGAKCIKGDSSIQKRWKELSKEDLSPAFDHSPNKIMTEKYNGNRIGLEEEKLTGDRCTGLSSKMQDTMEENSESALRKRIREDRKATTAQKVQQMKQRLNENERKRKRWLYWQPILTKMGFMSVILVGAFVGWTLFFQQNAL

PTP1B [2] = target: T1, PTP1B; settings: previous study of 28 medicinal plants; cited from earlier work

Structure (SMILES) | IC50 (PTP1B [1]) | inhibition at 10 µg/mL (PTP1B [1]; read-out: PTP1B inhibited activity (%), 10 μg/mL, mean of triplicate) | IC50 (TCPTP) | PTP1B IC50 (previous screening of Indonesian herbal medicines) (PTP1B [2]) | PTP1B (IC50, μg/mL) (PTP1B [1]; pNPP 2 mM, 37°C, 30 min)
C=C(C)[C@@H]1CC[C@]2(C(=O)O)CC[C@]3(C)[C@H](CC[C@@H]4[C@@]5(C)CC[C@H](O)C(C)(C)[C@@H]5CC[C@]43C)[C@@H]12 [Compound 1, Betulinic acid] | 3.28 µM | 98% | 5.25 µM |  | 
C[C@H]1[C@H](C)CC[C@]2(C(=O)O)CC[C@]3(C)C(=CC[C@@H]4[C@@]5(C)CC[C@H](O)C(C)(C)[C@@H]5CC[C@]43C)[C@H]12 [Compound 2, ursolic acid] |  |  | 6.79 µM |  | 
CCCCCCCCCCCCCCCC(=O)C1=C(O)C(CO)OC1=O (stereo not drawn) [RK-682, reference compound] |  |  |  | 2.05 µg/mL | 2.05 µg/mL
